Results reported in US20090169472A1, “METHODS AND COMPOSITIONS FOR TREATING IMMUNE DISORDERS” (CANCER RESEARCH TECHNOLOGY LTD., priority 2005, published 2009).
Oligonucleotides are written 5' to 3', each unit as a sugar letter and its base; * is a phosphorothioate linkage, no mark a phosphodiester; rarer units and linkages stand in square brackets, end groups in braces. Plain capitals give the bases only. r = 2'-OH (RNA)

Test system: Flt3L-DC
Experiment: Flt3L-DC activation assay (cytokines in supernatant by sandwich ELISA)
Type: cell-based, mouse
Settings: for IFNα induction by Flt3L-DC compared with polyUs-21 (reference TLR7 ligand): comparison in words; for ability to stimulate TLR7: summary statement on oligonucleotides of Table 1; for IFNα induction by Flt3L-DC: oligonucleotide/PEI complexes, C57BL/6 Flt3L-DC, overnight culture, result in words; for levels of IFNα compared with polyUs-21: at higher concentrations; for IFNα production: phosphodiester RNA of undefined length, previous experiments
Method: Flt3L-DC were generated from bone marrow cell suspensions in RPMI 1640 medium containing 10% fetal calf serum, 2 mM glutamine, 100 units/ml penicillin, 100 μg/ml streptomycin, 50 μM 2-mercaptoethanol and 50 ng/ml murine Flt3L (R&D systems) and were used at day 10 or 11 of cultures.
For stimulation with oligonucleotides, 2×10^5 Flt3L-DC were seeded in triplicate in 96-well-plates. Oligonucleotides were added and cells were cultured overnight in a final volume of 200 μl. Controls contained medium alone, 0.5 μg/ml CpG 1668, 100 mM loxoribine or 1 μM R848.
For stimulation with oligonucleotides other than CpG 1668, different doses of each test oligonucleotides were diluted in 150 mM NaCl solution and mixed with an equal volume of 150 mM NaCl solution+/−polytheylenimine (PEI; 3 μl/ml PEI were used irrespective of the RNA dose). After 15 min incubation at room temperature, oligonucleotide/PEI complexes were added to cells. Supernatants were collected after 18-20 hr of culture and levels of IFNα, IL-6 and IL-12 p40 were determined by sandwich ELISA.

## C=CCn1c(=O)n([C@@H]2O[C@H](CO)[C@@H](O)[C@H]2O)c2nc(N)[nH]c(=O)c21 [loxoribine, reference compound]
Ligands at concentrations of maximum cytokine induction, compared with polyUs-21/PEI
  IL-6 induction by Flt3L-DC: better inducers of IL-6 than polyUs-21

## SSD8: phosphorothioate RNA 21-mer CCUUUCCUUUCUUUCCUUUCC, 4x triple U, SEQ ID NO 12 (rC*rC*rU*rU*rU*rC*rC*rU*rU*rU*rC*rU*rU*rU*rC*rC*rU*rU*rU*rC*rC)
PEI complexes
  IFNα induction compared among SSD8, SSD9 and SSD10 (four, three or two uridine triplets): Differences between oligonucleotides SSD8 and SSD9 were only marginal
  potency in inducing IFNα, no uridine at the ends (SSD8, SSD14) compared with uridine at the ends (SSD13, SSD15): slightly more potent in inducing IFNα
  shift of the dose response, no uridine at the ends (SSD8, SSD14) compared with uridine at the ends (SSD13, SSD15): nearly half a logarithmic scale
  IFNα induction by Flt3L-DC compared with polyUs-21 (reference TLR7 ligand): lower levels of IFNα than the 21-mer oligonucleotide consisting entirely of uridine nucleotides
  ability to stimulate TLR7: capable of stimulating TLR7

## SSD9: phosphorothioate RNA 21-mer CCCCCCCUUUCUUUCCUUUCC, 3x triple U, SEQ ID NO 13 (rC*rC*rC*rC*rC*rC*rC*rU*rU*rU*rC*rU*rU*rU*rC*rC*rU*rU*rU*rC*rC)
PEI complexes
  IFNα induction compared among SSD8, SSD9 and SSD10 (four, three or two uridine triplets): Differences between oligonucleotides SSD8 and SSD9 were only marginal
  IFNα induction by Flt3L-DC compared with polyUs-21 (reference TLR7 ligand): lower levels of IFNα than the 21-mer oligonucleotide consisting entirely of uridine nucleotides
  ability to stimulate TLR7: capable of stimulating TLR7

## SSD10: phosphorothioate RNA 21-mer CCCCCCCUUUCUUUCCCCCCC, 2x triple U, SEQ ID NO 14 (rC*rC*rC*rC*rC*rC*rC*rU*rU*rU*rC*rU*rU*rU*rC*rC*rC*rC*rC*rC*rC)
PEI complexes
  IFNα induction compared among SSD8, SSD9 and SSD10 (four, three or two uridine triplets): slightly reduced
  IFNα induction by Flt3L-DC compared with polyUs-21 (reference TLR7 ligand): lower levels of IFNα than the 21-mer oligonucleotide consisting entirely of uridine nucleotides
  ability to stimulate TLR7: capable of stimulating TLR7

## SSD13: phosphorothioate RNA 21-mer UUUCCCUUUCCCUUUCCCUUU, 4x triple U, SEQ ID NO 15 (rU*rU*rU*rC*rC*rC*rU*rU*rU*rC*rC*rC*rU*rU*rU*rC*rC*rC*rU*rU*rU)
  ability to stimulate TLR7: capable of stimulating TLR7

## SSD14: phosphorothioate RNA 21-mer CCUUCCUUCCUUCCUUCCUUC, 5x double U, no U at the end, SEQ ID NO 16 (rC*rC*rU*rU*rC*rC*rU*rU*rC*rC*rU*rU*rC*rC*rU*rU*rC*rC*rU*rU*rC)
PEI complexes
  potency in inducing IFNα, no uridine at the ends (SSD8, SSD14) compared with uridine at the ends (SSD13, SSD15): slightly more potent in inducing IFNα
  shift of the dose response, no uridine at the ends (SSD8, SSD14) compared with uridine at the ends (SSD13, SSD15): nearly half a logarithmic scale
  ability to stimulate TLR7: capable of stimulating TLR7

## SSD15: phosphorothioate RNA 21-mer UUCCCUUCCCUUCCUUCCCUU, 5x double U with U at the end, SEQ ID NO 17 (rU*rU*rC*rC*rC*rU*rU*rC*rC*rC*rU*rU*rC*rC*rU*rU*rC*rC*rC*rU*rU)
  ability to stimulate TLR7: capable of stimulating TLR7

## SSD21: phosphorothioate RNA 21-mer CCCCCUUUCUUUCUUUCCCCC, 3x triple U, one C apart, SEQ ID NO 18 (rC*rC*rC*rC*rC*rU*rU*rU*rC*rU*rU*rU*rC*rU*rU*rU*rC*rC*rC*rC*rC)
PEI complexes
  IFNα levels compared within the group SSD21-SSD25 (three uridine triplets, one to five cytosines apart): induced the highest levels of IFNα in this group of oligonucleotides
  IFNα induction by Flt3L-DC compared with polyUs-21 (reference TLR7 ligand): less efficient in IFNα induction than polyUs-21
  ability to stimulate TLR7: capable of stimulating TLR7

## SSD22: phosphorothioate RNA 21-mer CCCCUUUCCUUUCCUUUCCCC, 3x triple U, two C apart, SEQ ID NO 19 (rC*rC*rC*rC*rU*rU*rU*rC*rC*rU*rU*rU*rC*rC*rU*rU*rU*rC*rC*rC*rC)
  ability to stimulate TLR7: capable of stimulating TLR7

## SSD23: phosphorothioate RNA 21-mer CCCUUUCCCUUUCCCUUUCCC, 3x triple U, three C apart, SEQ ID NO 20 (rC*rC*rC*rU*rU*rU*rC*rC*rC*rU*rU*rU*rC*rC*rC*rU*rU*rU*rC*rC*rC)
  ability to stimulate TLR7: capable of stimulating TLR7

## SSD24: phosphorothioate RNA 21-mer CCUUUCCCCUUUCCCCUUUCC, 3x triple U, four C apart, SEQ ID NO 21 (rC*rC*rU*rU*rU*rC*rC*rC*rC*rU*rU*rU*rC*rC*rC*rC*rU*rU*rU*rC*rC)
  ability to stimulate TLR7: capable of stimulating TLR7

## SSD25: phosphorothioate RNA 21-mer CUUUCCCCCUUUCCCCCUUUC, 3x triple U, five C apart, SEQ ID NO 22 (rC*rU*rU*rU*rC*rC*rC*rC*rC*rU*rU*rU*rC*rC*rC*rC*rC*rU*rU*rU*rC)
  IFNα induction by Flt3L-DC: hardly any measurable levels of IFNα were induced

## SSD27: phosphorothioate RNA 21-mer CUCUCUCUCUCUCUCUCUCUC, 10x single U, one C apart, SEQ ID NO 23 (rC*rU*rC*rU*rC*rU*rC*rU*rC*rU*rC*rU*rC*rU*rC*rU*rC*rU*rC*rU*rC)
  IFNα induction by Flt3L-DC: comparably poor in inducing IFNα

## SSD28: phosphorothioate RNA 21-mer CCCCUUCUUCUUCUUCUUCCC, 5x double U, one C apart, SEQ ID NO 24 (rC*rC*rC*rC*rU*rU*rC*rU*rU*rC*rU*rU*rC*rU*rU*rC*rU*rU*rC*rC*rC)
PEI complexes
  levels of IFNα compared with polyUs-21: comparable to the polyUs-21 oligonucleotide
  IFNα induction by Flt3L-DC: very potent in inducing IFNα
  ability to stimulate TLR7: capable of stimulating TLR7

## SSD29: phosphorothioate RNA 21-mer CCCCCCUUUUUUUUUUCCCCC, 10x U in a string, SEQ ID NO 25 (rC*rC*rC*rC*rC*rC*rU*rU*rU*rU*rU*rU*rU*rU*rU*rU*rC*rC*rC*rC*rC)
PEI complexes
  levels of IFNα compared with polyUs-21: comparable to the polyUs-21 oligonucleotide
  IFNα induction by Flt3L-DC: very potent in inducing IFNα
  ability to stimulate TLR7: capable of stimulating TLR7

## polyA [reference compound]
  IFNα production: neither polyA nor polyC phosphodiester RNA of undefined length triggered IFNα production

## polyC [reference compound]
  IFNα production: neither polyA nor polyC phosphodiester RNA of undefined length triggered IFNα production

## polyTs-21: polyT RNA 21-mer, phosphorothioate bonds, SEQ ID NO 28 (TTTTTTTTTTTTTTTTTTTTT; RNA, all phosphorothioate, T or U not given here; further chemistry not fully specified)
  IFNα induction by Flt3L-DC: unable to induce measurable levels of IFNα at any of the tested concentrations

## polyUo-10: polyU RNA 10-mer, phosphodiester bonds, SEQ ID NO 4 (UUUUUUUUUU; unmodified RNA)
Phosphodiester polyU RNA, PEI complexes, shift in the dose response
  fold less potent in inducing IFNα by Flt3L-DC than the 21-mer (polyUo-21): approximately 20 ×
  ability to stimulate TLR7: capable of stimulating TLR7
